Assays:
Format in all cases: cell-based
[1] = target: T1, CMKLR1 (Homo sapiens, UniProt Q99788); test: ERK1/2 phosphorylation in MEF cells, CMKLR1; design: expressed in transfected cells; conditions: PTX pre-treatment, 300 nM chemerin
T1 sequence (Q99788 1-373): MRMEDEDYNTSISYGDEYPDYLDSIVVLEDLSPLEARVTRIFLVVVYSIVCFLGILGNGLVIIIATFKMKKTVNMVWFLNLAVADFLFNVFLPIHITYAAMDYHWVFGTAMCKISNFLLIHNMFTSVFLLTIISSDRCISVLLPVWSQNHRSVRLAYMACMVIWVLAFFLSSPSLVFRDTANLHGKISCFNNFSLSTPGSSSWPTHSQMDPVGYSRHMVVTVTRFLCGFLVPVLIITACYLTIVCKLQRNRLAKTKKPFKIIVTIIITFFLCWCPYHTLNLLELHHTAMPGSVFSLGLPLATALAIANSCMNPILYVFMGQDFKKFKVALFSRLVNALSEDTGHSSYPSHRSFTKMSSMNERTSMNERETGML
Procedure: Whole cell lysates were resolved on 10% Tris/Tricine polyacrylamide gels and transferred to nitrocellulose membranes. […] Chemiluminescent detection was performed using ECL-Plus reagent (Perkin Elmer).
Results are expressed as the ratio between the amounts of phospho-ERK1/2 and total ERK1/2 following quantification. […] MEF cells were derived form β-Arr1 KO and WT1 or β-Arr2 KO and WT2 siblings.

[2] = target: T2, GPR1 (Homo sapiens, UniProt P46091); test: ERK1/2 phosphorylation in MEF cells, GPR1; design: expressed in transfected cells; conditions: PTX pre-treatment, 300 nM chemerin
T2 sequence (P46091 1-355): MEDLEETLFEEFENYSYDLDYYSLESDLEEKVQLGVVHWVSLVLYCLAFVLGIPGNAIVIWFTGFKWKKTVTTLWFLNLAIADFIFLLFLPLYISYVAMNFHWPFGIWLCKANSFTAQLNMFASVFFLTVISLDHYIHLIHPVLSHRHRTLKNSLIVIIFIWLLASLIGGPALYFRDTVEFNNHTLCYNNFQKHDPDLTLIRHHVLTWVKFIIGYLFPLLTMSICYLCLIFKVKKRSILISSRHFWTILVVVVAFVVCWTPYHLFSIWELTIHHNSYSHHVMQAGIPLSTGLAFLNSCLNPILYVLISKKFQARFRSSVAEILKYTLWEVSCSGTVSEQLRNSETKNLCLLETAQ
Procedure: CHO-K1 and MEF cells stably expressing receptors of interest were starved for 12–18 h in serum-free medium prior to stimulation. […] Whole cell lysates were resolved on 10% Tris/Tricine polyacrylamide gels and transferred to nitrocellulose membranes. Phosphorylated ERK1/2 and total ERK1/2 were detected by using rabbit polyclonal anti-phospho-ERK1/2 (Cell Signaling #4370, 1:1,000) and anti-ERK1/2 (Cell Signaling #4695S, 1:2,000) antibodies. Chemiluminescent detection was performed using ECL-Plus reagent (Perkin Elmer).
We next investigated the contribution of Gαi/o proteins and arrestins to ERK1/2 phosphorylation by using mouse embryonic fibroblast cells (MEF) deficient for the expression of arrestins (β-Arr1^-/- and β-Arr2^-/-) and stably expressing CMKLR1 or GPR1. […] However, we cannot rule out that the weak activation of G proteins by GPR1 contributes to ERK1/2 phosphorylation. We also must take into consideration that these assays display different levels of amplification and were performed in different cell types.
Fig 10 Contribution of Gi/o proteins and arrestins to CMKLR1- and GPR1-mediated ERK1/2 phosphorylation. […] Results are expressed as the ratio between the amounts of phospho-ERK1/2 and total ERK1/2 following quantification. […] Statistical significance was assessed using Tukey's test (***P < 0.0001; ** and ^## P< 0.001; * and ^# P< 0.01).

[3] = target: T1, CMKLR1; test: β-arrestin BRET recruitment assay, CMKLR1; design: expressed in transfected cells; host or cells: HEK293T; conditions: CMKLR1, HEK293T; PTX pretreatment, 100 nM chemerin
Procedure: (§1) β-arrestin recruitment was measured by a BRET proximity assay as previously described. Briefly, plasmids encoding Rluc-β-arrestin 2 and receptors fused to Venus were cotransfected into HEK293T cells by using the calcium phosphate method. […] BRET^1 between RLuc and YFP was measured after the addition of coelenterazine h (5 μM, Promega).
(§2) Data represent the mean ± S.E.M. of three independent experiments.
as §2

[4] = target: T2, GPR1; test: β-arrestin BRET recruitment assay, GPR1; design: expressed in transfected cells; host or cells: HEK293T; conditions: GPR1, HEK293T; PTX pretreatment, 100 nM chemerin
Procedure: as §1, §2, §2

In the case of Pertussis toxin, the “effect of PTX on ERK1/2 phosphorylation” value [1] is reported as “partially inhibited”, the “effect of PTX on ERK1/2 phosphorylation” value [2] is reported as “partially inhibited” and the “effect of PTX on β-arrestin1 recruitment” value [3] is reported as “inhibits partially β-arrestin1 recruitment to CMKLR1 and GPR1”. The “effect of PTX on β-arrestin2 recruitment” value [3] was “did not inhibit β-arrestin2 recruitment to CMKLR1 and GPR1”, the “effect of PTX on β-arrestin1 recruitment” value [4] was “inhibits partially β-arrestin1 recruitment to CMKLR1 and GPR1” and the “effect of PTX on β-arrestin2 recruitment” value [4] was “did not inhibit β-arrestin2 recruitment to CMKLR1 and GPR1”.

Reference: paper PMC5055294 (PLoS ONE, 2016)
